{
  "source": "patent US5091169A",
  "about": "“Dipyridoxyl phosphate NMRI contrast agent compositions” (priority 1989, dated 1992)",
  "test_system": "selected body organs",
  "settings": "for T1, Blood / T1, Brain / T1, Large Int. / T1, Liver / T1, Renal Cort. / T1, Renal Med. / T1, Small Int. / T1, Urine / T2, Brain / T2, Large Int. / T2, Liver / T2, Renal Cort. / T2, Renal Med. / T2, Small Int. / T1, Fat / T1, Heart / T1, Lung / T1, Skel. Musc. / T1, Stom. / T2, Fat / T2, Heart / T2, Lung / T2, Skel. Musc. / T2, Stom. / T2, Urine: 30 min, 10 MHz",
  "experimental": "Each of four rabbits was injected intravenously with one of the following amounts of the solution obtained in Example 7: 0.01 mmoles/kg, 0.05 mmoles/kg, 0.10 mmoles/kg and 0.20 mmoles/kg. The rabbits were sacrificed 30 min post injection, and the proton relaxation values of selected body organs were measured with NMR, in vitro at 10 MHz.",
  "note": "Like-named read-outs stand apart in the source and are kept apart here.",
  "data": [
    {"smiles": "Cc1ncc(COP(=O)(O)O)c(CN(CCN(CC(=O)[O-])Cc2c(COP(=O)(O)O)cnc(C)c2O)CC(=O)[O-])c1O.[Mn+2]", "note": "[Mn(DPDP), manganese chelate complex of N,N'-bis-(pyridoxal-5-phosphate)ethylenediamine-N,N'-diacetic acid]", "values": [
      {"measurement": "T1, Blood", "setting": "0.01 mmol/kg i.v.", "value": 844, "unit": "ms"},
      {"measurement": "T1, Brain", "setting": "0.01 mmol/kg i.v.", "value": 554, "unit": "ms"},
      {"measurement": "T1, Large Int.", "setting": "0.01 mmol/kg i.v.", "value": 283, "unit": "ms"},
      {"measurement": "T1, Liver", "setting": "0.01 mmol/kg i.v.", "value": 176, "unit": "ms"},
      {"measurement": "T1, Renal Cort.", "setting": "0.01 mmol/kg i.v.", "value": 298, "unit": "ms"},
      {"measurement": "T1, Renal Med.", "setting": "0.01 mmol/kg i.v.", "value": 502, "unit": "ms"},
      {"measurement": "T1, Small Int.", "setting": "0.01 mmol/kg i.v.", "value": 324, "unit": "ms"},
      {"measurement": "T1, Urine", "setting": "0.01 mmol/kg i.v.", "value": 821, "unit": "ms"},
      {"measurement": "T2, Brain", "setting": "0.01 mmol/kg i.v.", "value": 76, "unit": "ms"},
      {"measurement": "T2, Large Int.", "setting": "0.01 mmol/kg i.v.", "value": 64, "unit": "ms"},
      {"measurement": "T2, Liver", "setting": "0.01 mmol/kg i.v.", "value": 39, "unit": "ms"},
      {"measurement": "T2, Renal Cort.", "setting": "0.01 mmol/kg i.v.", "value": 65, "unit": "ms"},
      {"measurement": "T2, Renal Med.", "setting": "0.01 mmol/kg i.v.", "value": 99, "unit": "ms"},
      {"measurement": "T2, Small Int.", "setting": "0.01 mmol/kg i.v.", "value": 72, "unit": "ms"},
      {"measurement": "T1, Blood", "setting": "0.05 mmol/kg i.v.", "value": 613, "unit": "ms"},
      {"measurement": "T1, Brain", "setting": "0.05 mmol/kg i.v.", "value": 496, "unit": "ms"},
      {"measurement": "T1, Fat", "setting": "0.05 mmol/kg i.v.", "value": 200, "unit": "ms"},
      {"measurement": "T1, Heart", "setting": "0.05 mmol/kg i.v.", "value": 353, "unit": "ms"},
      {"measurement": "T1, Large Int.", "setting": "0.05 mmol/kg i.v.", "value": 365, "unit": "ms"},
      {"measurement": "T1, Liver", "setting": "0.05 mmol/kg i.v.", "value": 76, "unit": "ms"},
      {"measurement": "T1, Lung", "setting": "0.05 mmol/kg i.v.", "value": 575, "unit": "ms"},
      {"measurement": "T1, Renal Cort.", "setting": "0.05 mmol/kg i.v.", "value": 210, "unit": "ms"},
      {"measurement": "T1, Renal Med.", "setting": "0.05 mmol/kg i.v.", "value": 223, "unit": "ms"},
      {"measurement": "T1, Skel. Musc.", "setting": "0.05 mmol/kg i.v.", "value": 494, "unit": "ms"},
      {"measurement": "T1, Small Int.", "setting": "0.05 mmol/kg i.v.", "value": 237, "unit": "ms"},
      {"measurement": "T1, Stom.", "setting": "0.05 mmol/kg i.v.", "value": 245, "unit": "ms"},
      {"measurement": "T1, Urine", "setting": "0.05 mmol/kg i.v.", "value": 150, "unit": "ms"},
      {"measurement": "T2, Brain", "setting": "0.05 mmol/kg i.v.", "value": 82, "unit": "ms"},
      {"measurement": "T2, Fat", "setting": "0.05 mmol/kg i.v.", "value": 139, "unit": "ms"},
      {"measurement": "T2, Heart", "setting": "0.05 mmol/kg i.v.", "value": 54, "unit": "ms"},
      {"measurement": "T2, Large Int.", "setting": "0.05 mmol/kg i.v.", "value": 83, "unit": "ms"},
      {"measurement": "T2, Liver", "setting": "0.05 mmol/kg i.v.", "value": 31, "unit": "ms"},
      {"measurement": "T2, Lung", "setting": "0.05 mmol/kg i.v.", "value": 113, "unit": "ms"},
      {"measurement": "T2, Renal Cort.", "setting": "0.05 mmol/kg i.v.", "value": 57, "unit": "ms"},
      {"measurement": "T2, Renal Med.", "setting": "0.05 mmol/kg i.v.", "value": 57, "unit": "ms"},
      {"measurement": "T2, Skel. Musc.", "setting": "0.05 mmol/kg i.v.", "value": 47, "unit": "ms"},
      {"measurement": "T2, Small Int.", "setting": "0.05 mmol/kg i.v.", "value": 52, "unit": "ms"},
      {"measurement": "T2, Stom.", "setting": "0.05 mmol/kg i.v.", "value": 41, "unit": "ms"},
      {"measurement": "T2, Urine", "setting": "0.05 mmol/kg i.v.", "value": 136, "unit": "ms"},
      {"measurement": "T1, Blood", "setting": "0.10 mmol/kg i.v.", "value": 506, "unit": "ms"},
      {"measurement": "T1, Brain", "setting": "0.10 mmol/kg i.v.", "value": 590, "unit": "ms"},
      {"measurement": "T1, Fat", "setting": "0.10 mmol/kg i.v.", "value": 183, "unit": "ms"},
      {"measurement": "T1, Heart", "setting": "0.10 mmol/kg i.v.", "value": 300, "unit": "ms"},
      {"measurement": "T1, Large Int.", "setting": "0.10 mmol/kg i.v.", "value": 290, "unit": "ms"},
      {"measurement": "T1, Liver", "setting": "0.10 mmol/kg i.v.", "value": 65, "unit": "ms"},
      {"measurement": "T1, Lung", "setting": "0.10 mmol/kg i.v.", "value": 435, "unit": "ms"},
      {"measurement": "T1, Renal Cort.", "setting": "0.10 mmol/kg i.v.", "value": 188, "unit": "ms"},
      {"measurement": "T1, Renal Med.", "setting": "0.10 mmol/kg i.v.", "value": 209, "unit": "ms"},
      {"measurement": "T1, Skel. Musc.", "setting": "0.10 mmol/kg i.v.", "value": 425, "unit": "ms"},
      {"measurement": "T1, Small Int.", "setting": "0.10 mmol/kg i.v.", "value": 218, "unit": "ms"},
      {"measurement": "T1, Stom.", "setting": "0.10 mmol/kg i.v.", "value": 242, "unit": "ms"},
      {"measurement": "T1, Urine", "setting": "0.10 mmol/kg i.v.", "value": 90, "unit": "ms"},
      {"measurement": "T2, Brain", "setting": "0.10 mmol/kg i.v.", "value": 90, "unit": "ms"},
      {"measurement": "T2, Fat", "setting": "0.10 mmol/kg i.v.", "value": 115, "unit": "ms"},
      {"measurement": "T2, Heart", "setting": "0.10 mmol/kg i.v.", "value": 51, "unit": "ms"},
      {"measurement": "T2, Large Int.", "setting": "0.10 mmol/kg i.v.", "value": 57, "unit": "ms"},
      {"measurement": "T2, Liver", "setting": "0.10 mmol/kg i.v.", "value": 23, "unit": "ms"},
      {"measurement": "T2, Lung", "setting": "0.10 mmol/kg i.v.", "value": 61, "unit": "ms"},
      {"measurement": "T2, Renal Cort.", "setting": "0.10 mmol/kg i.v.", "value": 55, "unit": "ms"},
      {"measurement": "T2, Renal Med.", "setting": "0.10 mmol/kg i.v.", "value": 48, "unit": "ms"},
      {"measurement": "T2, Skel. Musc.", "setting": "0.10 mmol/kg i.v.", "value": 31, "unit": "ms"},
      {"measurement": "T2, Small Int.", "setting": "0.10 mmol/kg i.v.", "value": 46, "unit": "ms"},
      {"measurement": "T2, Stom.", "setting": "0.10 mmol/kg i.v.", "value": 52, "unit": "ms"},
      {"measurement": "T2, Urine", "setting": "0.10 mmol/kg i.v.", "value": 75, "unit": "ms"},
      {"measurement": "T1, Blood", "setting": "0.20 mmol/kg i.v.", "value": 411, "unit": "ms"},
      {"measurement": "T1, Brain", "setting": "0.20 mmol/kg i.v.", "value": 352, "unit": "ms"},
      {"measurement": "T1, Fat", "setting": "0.20 mmol/kg i.v.", "value": 192, "unit": "ms"},
      {"measurement": "T1, Heart", "setting": "0.20 mmol/kg i.v.", "value": 205, "unit": "ms"},
      {"measurement": "T1, Large Int.", "setting": "0.20 mmol/kg i.v.", "value": 256, "unit": "ms"},
      {"measurement": "T1, Liver", "setting": "0.20 mmol/kg i.v.", "value": 68, "unit": "ms"},
      {"measurement": "T1, Lung", "setting": "0.20 mmol/kg i.v.", "value": 376, "unit": "ms"},
      {"measurement": "T1, Renal Cort.", "setting": "0.20 mmol/kg i.v.", "value": 143, "unit": "ms"},
      {"measurement": "T1, Renal Med.", "setting": "0.20 mmol/kg i.v.", "value": 127, "unit": "ms"},
      {"measurement": "T1, Skel. Musc.", "setting": "0.20 mmol/kg i.v.", "value": 232, "unit": "ms"},
      {"measurement": "T1, Small Int.", "setting": "0.20 mmol/kg i.v.", "value": 131, "unit": "ms"},
      {"measurement": "T1, Stom.", "setting": "0.20 mmol/kg i.v.", "value": 271, "unit": "ms"},
      {"measurement": "T2, Brain", "setting": "0.20 mmol/kg i.v.", "value": 66, "unit": "ms"},
      {"measurement": "T2, Heart", "setting": "0.20 mmol/kg i.v.", "value": 47, "unit": "ms"},
      {"measurement": "T2, Large Int.", "setting": "0.20 mmol/kg i.v.", "value": 74, "unit": "ms"},
      {"measurement": "T2, Liver", "setting": "0.20 mmol/kg i.v.", "value": 25, "unit": "ms"},
      {"measurement": "T2, Lung", "setting": "0.20 mmol/kg i.v.", "value": 63, "unit": "ms"},
      {"measurement": "T2, Renal Cort.", "setting": "0.20 mmol/kg i.v.", "value": 53, "unit": "ms"},
      {"measurement": "T2, Renal Med.", "setting": "0.20 mmol/kg i.v.", "value": 60, "unit": "ms"},
      {"measurement": "T2, Skel. Musc.", "setting": "0.20 mmol/kg i.v.", "value": 31, "unit": "ms"},
      {"measurement": "T2, Small Int.", "setting": "0.20 mmol/kg i.v.", "value": 46, "unit": "ms"},
      {"measurement": "T2, Stom.", "setting": "0.20 mmol/kg i.v.", "value": 53, "unit": "ms"},
      {"measurement": "heart uptake vs dose", "setting": "dose range studied", "value": "the heart continues to uptake Mn(DPDP) through the dose range studied"},
      {"measurement": "uptake in organs", "setting": "heart, liver and kidneys, i.v.", "value": "rapid uptake of the Mn(DPDP) in the heart, liver and kidneys"},
      {"measurement": "brain uptake", "setting": "higher doses", "value": "uptake by the brain was observed at higher doses"},
      {"measurement": "saturating dose, liver and kidneys", "setting": "i.v., 30 min post injection", "value": 0.10, "unit": "mmol/kg"}
    ]}
  ]
}
